Assay results from patent US20260256794A1, “Oral Dynamine Formulations and Methods Therefor” (Ortho-Nutra, LLC, priority 2023, published 2026).

Columns and labels:
[1] = tested on: subjects; assay: VAS-Motivation; type: in vivo, human; design: VAS-Motivation rating, Mean / VAS-Motivation changes from baseline, Mean Difference ± SE / VAS-Motivation area under the curve, Mean Difference ± SE / VAS-Motivation area under the curve, Mean: scale not given here
Method: (§1) The inventors have discovered various compositions and methods of improving various indices of neurological and neuroenergetic functions by administering 100 mg (once daily) dosages of DYNAMINE™ (dosage between 1.0 and 1.4 mg/kg) as described in the following:
(§2) All neuroenergetic tests as listed below were performed and data were collected after 0 and 4 days of assigned supplements (with acute effects also measured at day 4 over 180 minutes):
(§3) All VAS Measurement (Energy, Sustained Energy, Mental Stamina, Ability to Focus, Ability to Concentrate, Motivation to Accomplish Difficult Tasks, Drive, Vigor, Level of Positive Outlook, Mood, Feelings of Well-Being, Tolerate Stress); Day 0: Two tests were completed. The average of both scores was computed and this value was used in all statistical analysis. Day 4 (0 minutes after ingesting dose #4): Two tests were completed. The average of both scores was computed and this value was used in all statistical analysis. Day 4 (60, 120, and 180 minutes after ingesting dose #4): One test was completed at each time point.
(§4) Neuroenergic parameters are inherently subjective, nevertheless significant in human behavior and well-being. To allow for a standardization among different subjects, the following experiments were performed using a visual analog scale using anchor statements (lowest possible/highest possible) in which subjects were asked to rate their subjective experience with respect to the specific neuroenergic parameters tested.
VAS-Motivation: In this subjective test, subjects were asked to rate their personal level of energy on a VAS scale using the prompt of “My motivation to accomplish difficult tasks right now is . . . ” (with rating lowest possible to highest possible)”. Results were collected as noted above and Table 19 provides exemplary results for Day 0 versus Day 4 ratings, whereas Table 20 provides exemplary acute results measured at Day 4 over a duration of 180 minutes.

[2] = tested on: subjects; assay: VAS-Ability to focus; type: in vivo, human; design: VAS-Ability to focus rating, Mean / VAS-Ability to focus changes from baseline, Mean Difference ± SE / VAS-Ability to focus area under the curve, Mean Difference ± SE / VAS-Ability to focus area under the curve, Mean: scale not given here
Method: as §1, §2, §3, §4
VAS-Ability to focus: In this subjective test, subjects were asked to rate their personal level of energy on a VAS scale using the prompt of “My ability to focus right now is . . . ” (with rating lowest possible to highest possible)”. Results were collected as noted above and Table 13 provides exemplary results for Day 0 versus Day 4 ratings, whereas Table 14 provides exemplary acute results measured at Day 4 over a duration of 180 minutes.

[3] = tested on: subjects; assay: VAS-Sustained Energy; type: in vivo, human; design: VAS-Sustained Energy rating, Mean / VAS-Sustained Energy changes from baseline, Mean Difference ± SE / VAS-Sustained Energy Δ, Mean Difference ± SE / VAS-Sustained Energy area under the curve, Mean Difference ± SE / VAS-Sustained Energy area under the curve, Mean: scale not given here; conditions: for VAS-Sustained Energy Δ, effect size d / VAS-Sustained Energy Δ from 0 min, Mean / VAS-Sustained Energy Δ, Mean Difference ± SE: females; for VAS-Sustained Energy Δ, effect size d: vs placebo; for VAS-Sustained Energy Δ, Mean Difference ± SE: B vs A (placebo)
Method: as §1, §2, §3, §4
VAS-Sustained Energy: In this subjective test, subjects were asked to rate their personal level of energy on a VAS scale using the prompt of “My level of sustained energy right now is . . . ” (with rating lowest possible to highest possible)”. Results were collected as noted above and Table 6 provides exemplary results for Day 0 versus Day 4 ratings, whereas Table 7 provides exemplary acute results measured at Day 4 over a duration of 180 minutes.

[4] = tested on: subjects; assay: Hemodynamics: systolic blood pressure; type: in vivo, human; conditions: for Systolic blood pressure changes from baseline, Mean Difference ± SE / Systolic blood pressure changes from baseline, effect size d: between groups (placebo)
Method: as §1
Hemodynamics Systolic Blood Pressure, Diastolic Blood Pressure, Heart Rate were taken Pre and Post Stroop Test on Day 0; Pre and Post Stroop Test after 4 Days of Supplementation 0, 60, 120, and 180 minutes after ingestion of 4th dose.
For hemodynamic parameters, systolic blood pressure, diastolic blood pressure, and heart rate were taken pre- and post-Stroop Test on Day 0, and pre- and post-Stroop Test after 4 Days of Supplementation 0, 60, 120, and 180 minutes after ingestion of 4th dose.

[5] = cited from earlier work
[6] = 100 mg once daily, Day 4, 0-180 min
[7] = 100 mg once daily, Day 4, 0-180 min, vs Group A (placebo)
[8] = 100 mg once daily, Day 4, 0 min after dose #4
[9] = 100 mg once daily, Day 4, 60 min-0 min, vs Group A (placebo)
[10] = 100 mg once daily, Day 4, 60 min after dose #4
[11] = 100 mg once daily, Day 4, 120 min-0 min, vs Group A (placebo)
[12] = 100 mg once daily, Day 4, 120 min after dose #4
[13] = 100 mg once daily, Day 4, 180 min-0 min, vs Group A (placebo)
[14] = 100 mg once daily, Day 4, 180 min after dose #4
[15] = 100 mg once daily, Day 4, Δ @ 60 min
[16] = 100 mg once daily, Day 4, Δ @ 120 min
[17] = 100 mg once daily, Day 4, Δ @ 180 min
[18] = 100 mg once daily, Day 4, 60 min-0 min
[19] = 100 mg once daily, Day 4, 120 min-0 min
[20] = 100 mg once daily, Day 4, 180 min-0 min

COc1nc2c(c(=O)n1C)n(C)c(=O)n2C [methylliberine, 2-methoxy-1,7,9-trimethylpurine-6,8-dione]
VAS-Motivation area under the curve, Mean [1, 6]: 1113
VAS-Motivation area under the curve, Mean Difference ± SE [1, 7]: 36.8 ± 37.4
VAS-Motivation area under the curve, effect size d [1, 7]: 0.11
VAS-Motivation rating, Mean [1, 8]: 5.7
VAS-Motivation changes from baseline, Mean Difference ± SE [1, 9]: −0.07 ± 0.27
VAS-Motivation changes from baseline, effect size d [1, 9]: −0.08
VAS-Motivation rating, Mean [1, 10]: 6.2
VAS-Motivation changes from baseline, Mean Difference ± SE [1, 11]: −0.25 ± 0.27
VAS-Motivation changes from baseline, effect size d [1, 11]: −0.25
VAS-Motivation rating, Mean [1, 12]: 6.2
VAS-Motivation changes from baseline, Mean Difference ± SE [1, 13]: 0.53 ± 0.27
VAS-Motivation changes from baseline, effect size d [1, 13]: 0.50
VAS-Motivation rating, Mean [1, 14]: 6.6
VAS-Motivation rating, Mean ([1]; Day 0 (before supplementation)): 5.8
VAS-Ability to focus area under the curve, Mean [2, 6]: 1155
VAS-Ability to focus area under the curve, Mean Difference ± SE [2, 7]: 55.3 ± 40.9
VAS-Ability to focus area under the curve, effect size d [2, 7]: 0.17
VAS-Ability to focus rating, Mean [2, 8]: 6.0
VAS-Ability to focus changes from baseline, Mean Difference ± SE [2, 9]: 0.35 ± 0.30
VAS-Ability to focus changes from baseline, effect size d [2, 9]: 0.34
VAS-Ability to focus rating, Mean [2, 10]: 6.4
VAS-Ability to focus changes from baseline, Mean Difference ± SE [2, 11]: 0.20 ± 0.26
VAS-Ability to focus changes from baseline, effect size d [2, 11]: 0.20
VAS-Ability to focus rating, Mean [2, 12]: 6.5
VAS-Ability to focus changes from baseline, Mean Difference ± SE [2, 13]: 0.44 ± 0.24
VAS-Ability to focus changes from baseline, effect size d [2, 13]: 0.38
VAS-Ability to focus rating, Mean [2, 14]: 6.7
VAS-Ability to focus rating, Mean ([2]; Day 0 (before supplementation)): 5.9
VAS-Sustained Energy area under the curve, Mean [3, 6]: 1073
VAS-Sustained Energy area under the curve, Mean Difference ± SE [3, 7]: 45.2 ± 41.7
VAS-Sustained Energy area under the curve, effect size d [3, 7]: −0.13
VAS-Sustained Energy rating, Mean [3, 8]: 5.7
VAS-Sustained Energy changes from baseline, Mean Difference ± SE [3, 9]: 0.22 ± 0.22
VAS-Sustained Energy changes from baseline, effect size d [3, 9]: 0.27
VAS-Sustained Energy rating, Mean [3, 10]: 6.2
VAS-Sustained Energy changes from baseline, Mean Difference ± SE [3, 11]: −0.11 ± 0.25
VAS-Sustained Energy changes from baseline, effect size d [3, 11]: −0.11
VAS-Sustained Energy rating, Mean [3, 12]: 6.3
VAS-Sustained Energy changes from baseline, Mean Difference ± SE [3, 13]: 0.24 ± 0.23
VAS-Sustained Energy changes from baseline, effect size d [3, 13]: 0.24
VAS-Sustained Energy rating, Mean [3, 14]: 6.5
VAS-Sustained Energy rating, Mean ([3]; Day 0 (before supplementation)): 5.6
VAS-Sustained Energy Δ, effect size d ([3]; 100 mg once daily, Day 4, 60 min): 0.86
VAS-Sustained Energy Δ, effect size d ([3]; 100 mg once daily, Day 4, 120 min): 0.62
VAS-Sustained Energy Δ, effect size d ([3]; 100 mg once daily, Day 4, 120 min, listed as B): 0.03
VAS-Sustained Energy Δ, effect size d ([3]; 100 mg once daily, Day 4, 180 min): 0.62
VAS-Sustained Energy Δ from 0 min, Mean [3, 15]: 0.85
VAS-Sustained Energy Δ, Mean Difference ± SE [3, 15]: 0.74 ± 0.29
VAS-Sustained Energy Δ from 0 min, Mean [3, 16]: 0.88
VAS-Sustained Energy Δ, Mean Difference ± SE [3, 16]: 0.02 ± 0.35
VAS-Sustained Energy Δ from 0 min, Mean [3, 17]: 1.28
VAS-Sustained Energy Δ, Mean Difference ± SE [3, 17]: 0.72 ± 0.31
Systolic blood pressure, Mean ([4]; 100 mg once daily, Day 4, 0 min after 4th dose): 121.4 mm Hg
Systolic blood pressure changes from baseline, Mean Difference ± SE [4, 18]: 1.16 ± 2.57 mm Hg
Systolic blood pressure changes from baseline, effect size d [4, 18]: −0.12
Systolic blood pressure, Mean ([4]; 100 mg once daily, Day 4, 60 min after 4th dose): 117.9 mm Hg
Systolic blood pressure changes from baseline, Mean Difference ± SE [4, 19]: −0.60 ± 2.22 mm Hg
Systolic blood pressure changes from baseline, effect size d [4, 19]: 0.06
Systolic blood pressure, Mean ([4]; 100 mg once daily, Day 4, 120 min after 4th dose): 120.6 mm Hg
Systolic blood pressure changes from baseline, Mean Difference ± SE [4, 20]: 2.40 ± 2.25 mm Hg
Systolic blood pressure changes from baseline, effect size d [4, 20]: −0.27
Systolic blood pressure, Mean ([4]; 100 mg once daily, Day 4, 180 min after 4th dose): 120.0 mm Hg
Systolic blood pressure, Mean ([4]; Day 0 (before supplementation)): 118.6 mm Hg
effect on pharmacokinetics of caffeine ([5]; methylliberine 100 mg administered in combination with caffeine 150 mg): will alter pharmacokinetic effects of caffeine
half-life ([5]; oral, 25 mg and 100 mg, healthy subjects): 1 to 1.4 h
